Literature values as cited in patent US20190038640A1, “COMPOSITION, FORMULATIONS AND METHODS OF MAKING AND USING BOTANICALS AND NATURAL COMPOUNDS FOR THE PROMOTION OF HEALTHY BRAIN AGING” (THE BRAIN HEALTH PROJECT, LLC, priority 2013, published 2019).

Experiments:
[1] = system: endometrium; settings: genistein aglycone 54 mg
[2] = 0.1-0.2 mg HupA twice daily, active group
[3] = system: beta amyloid; settings: AD transgenic mice
[4] = in vivo
[5] = system: alkaline phosphatase activity in the endometrium

Structure (SMILES): O=c1c(-c2ccc(O)cc2)coc2cc(O)cc(O)c12 [Genistein, genistein]
- reduction of endometrial hyperplasia without atypia compared with norethisterone acetate [1]: as successful as

Structure (SMILES): C/C=C1\[C@H]2C=C(C)C[C@]1(N)c1ccc(=O)[nH]c1C2 [Huperzine A]
- proportion of patients with a four point improvement on the ADAS-Cog [2]: 56%
- terminal half life (0.2 mg pure Huperzine A orally, healthy subjects): approximately 6 hours
- optimal plasma level (human, in vivo): 0.6 ng/mL

Structure (SMILES): Cn1c(=O)c2c(ncn2C)n(C)c1=O [caffeine]
- reduction of beta amyloid deposition in the entorhinal cortex [3]: 46%
- reduction of beta amyloid deposition in the hippocampus [3]: 40%
- half life [4]: 4 to 6 h
- time to peak blood levels [4]: within one hour

Structure (SMILES): O=c1c(-c2ccc(O)cc2)coc2cc(O)ccc12 [daidzein]
- potency of inducing alkaline phosphatase activity relative to estradiol [5]: one millionth
